± gives the uncertainty stated by the source.
Assay: xn = mol fraction of the nth substance listed

CCCCCCCCn1cc[n+](C)c1.F[B-](F)(F)F + O
100 kPa
Settings | viscosity [mPa·s]
298.15 K, x2 = 0.9487 | 5.25 ± 0.26
308 K, x1 = 0.5482 | 34.91 ± 0.76

CCCCCCCCn1cc[n+](C)c1.[Br-] + O
electrical conductivity [S/m]
Settings | 298.15 K | 308.15 K
100 kPa, frequency 0.001 MHz, x1 = 0.0006843 | 0.249 ± 0.013 | –
100 kPa, frequency 0.001 MHz, x1 = 0.0009721 | 0.348 ± 0.013 | –
100 kPa, frequency 0.001 MHz, x1 = 0.001278 | 0.462 ± 0.014 | –
100 kPa, frequency 0.001 MHz, x1 = 0.001601 | 0.576 ± 0.014 | –
100 kPa, frequency 0.001 MHz, x1 = 0.001889 | 0.683 ± 0.014 | –
100 kPa, frequency 0.001 MHz, x1 = 0.002176 | 0.778 ± 0.015 | –
100 kPa, frequency 0.001 MHz, x1 = 0.002445 | 0.88 ± 0.015 | –
100 kPa, frequency 0.001 MHz, x1 = 0.002714 | 0.965 ± 0.014 | –
100 kPa, frequency 0.001 MHz, x1 = 0.003072 | 1.06 ± 0.013 | –
100 kPa, frequency 0.001 MHz, x1 = 0.003341 | 1.1 ± 0.012 | –
100 kPa, frequency 0.001 MHz, x1 = 0.003681 | 1.15 ± 0.013 | –
100 kPa, frequency 0.001 MHz, x1 = 0.004092 | 1.22 ± 0.013 | –
100 kPa, frequency 0.001 MHz, x1 = 0.004592 | 1.28 ± 0.014 | –
101 kPa, frequency 1 MHz, x1 = 0.0001962 | 0.1011 ± 0.001 | 0.122 ± 0.0013

Settings | electrical conductivity [S/m] | viscosity [mPa·s]
298.15 K, 100 kPa, x1 = 6.847e-05 | – | 0.892 ± 0.019
298.15 K, 100 kPa, x1 = 0.0003279 | – | 0.899 ± 0.019
298.15 K, 101 kPa, x1 = 1.982e-05 | – | 0.891 ± 0.019
298.15 K, 101 kPa, x1 = 3.243e-05 | – | 0.892 ± 0.019
298.15 K, 101 kPa, x1 = 0.0001962 | – | 0.912 ± 0.011
298.15 K, 101 kPa, x1 = 0.001831 | – | 0.965 ± 0.013
298.15 K, 101 kPa, x1 = 0.003519 | 1.17 ± 0.02 | –
298.15 K, 101 kPa, x1 = 0.003598 | – | 1.025 ± 0.014
298.15 K, 101 kPa, x1 = 0.00377 | 1.23 ± 0.03 | –
298.15 K, 101 kPa, x1 = 0.003967 | 1.26 ± 0.03 | –
298.15 K, 101 kPa, x1 = 0.004163 | 1.3 ± 0.03 | –
298.15 K, 101 kPa, x1 = 0.004378 | 1.34 ± 0.03 | –
298.15 K, 101 kPa, x1 = 0.004538 | 1.36 ± 0.03 | –
298.15 K, 101 kPa, x1 = 0.004717 | 1.39 ± 0.03 | –
298.15 K, 101 kPa, x1 = 0.004895 | 1.41 ± 0.03 | –
298.15 K, 101 kPa, x1 = 0.005109 | 1.45 ± 0.03 | –
298.15 K, 101 kPa, x1 = 0.005288 | 1.48 ± 0.03 | –
298.15 K, 101 kPa, x1 = 0.005443 | – | 1.103 ± 0.014
298.15 K, 101 kPa, x1 = 0.005484 | 1.51 ± 0.03 | –
298.15 K, 101 kPa, x1 = 0.005698 | 1.54 ± 0.03 | –
298.15 K, 101 kPa, x1 = 0.005894 | 1.56 ± 0.03 | –
298.15 K, 101 kPa, x1 = 0.007132 | – | 1.172 ± 0.014
303.15 K, 100 kPa, x1 = 0.0002 | – | 0.803 ± 0.017
308.15 K, 100 kPa, x1 = 0.0003279 | – | 0.726 ± 0.015
308.15 K, 101 kPa, x1 = 0.0001962 | – | 0.736 ± 0.009
313.15 K, 100 kPa, x1 = 0.0002 | – | 0.657 ± 0.014

CCCC[n+]1ccn(C)c1.COP(=O)([O-])OC + O
101 kPa
Settings | viscosity [mPa·s]
298.15 K, x2 = 0.398 | 251 ± 15
303.15 K, x2 = 0.201 | 291 ± 18
303.15 K, x2 = 0.601 | 81.6 ± 1.7
313.15 K, x2 = 0.799 | 15.81 ± 0.19
318.15 K, x2 = 0.398 | 78.8 ± 1.5
328.15 K, x2 = 0.398 | 49.68 ± 0.62

CCCC[n+]1ccn(C)c1.O=S(=O)([O-])C(F)(F)F + O
Settings | viscosity [mPa·s]
343.15 K, 101 kPa, x2 = 0.1939 | 10.55 ± 0.78

— the CheMixHub ionic liquid set
